# Read-outs that look alike come from different tables or passages of the source. Positions of bridges follow the written chain, without caps; N, C: chain ends. Non-standard residues stand in square brackets, D forms with d. Residues, ends and D or L forms follow the SMILES beside them. 1Nal = N[C@@H](Cc1cccc2ccccc12)C(=O)O; 2Nal = N[C@@H](Cc1ccc2ccccc2c1)C(=O)O
# What was measured:
# Assay in all cases: cell-based
# hNav1.5 = hNav1.5 (Homo sapiens, UniProt Q14524); details: IonWorks Quattro, read-out: IWQ Use Nav1.5
# Chain of hNav1.5 (Q14524 whole entry, looked up): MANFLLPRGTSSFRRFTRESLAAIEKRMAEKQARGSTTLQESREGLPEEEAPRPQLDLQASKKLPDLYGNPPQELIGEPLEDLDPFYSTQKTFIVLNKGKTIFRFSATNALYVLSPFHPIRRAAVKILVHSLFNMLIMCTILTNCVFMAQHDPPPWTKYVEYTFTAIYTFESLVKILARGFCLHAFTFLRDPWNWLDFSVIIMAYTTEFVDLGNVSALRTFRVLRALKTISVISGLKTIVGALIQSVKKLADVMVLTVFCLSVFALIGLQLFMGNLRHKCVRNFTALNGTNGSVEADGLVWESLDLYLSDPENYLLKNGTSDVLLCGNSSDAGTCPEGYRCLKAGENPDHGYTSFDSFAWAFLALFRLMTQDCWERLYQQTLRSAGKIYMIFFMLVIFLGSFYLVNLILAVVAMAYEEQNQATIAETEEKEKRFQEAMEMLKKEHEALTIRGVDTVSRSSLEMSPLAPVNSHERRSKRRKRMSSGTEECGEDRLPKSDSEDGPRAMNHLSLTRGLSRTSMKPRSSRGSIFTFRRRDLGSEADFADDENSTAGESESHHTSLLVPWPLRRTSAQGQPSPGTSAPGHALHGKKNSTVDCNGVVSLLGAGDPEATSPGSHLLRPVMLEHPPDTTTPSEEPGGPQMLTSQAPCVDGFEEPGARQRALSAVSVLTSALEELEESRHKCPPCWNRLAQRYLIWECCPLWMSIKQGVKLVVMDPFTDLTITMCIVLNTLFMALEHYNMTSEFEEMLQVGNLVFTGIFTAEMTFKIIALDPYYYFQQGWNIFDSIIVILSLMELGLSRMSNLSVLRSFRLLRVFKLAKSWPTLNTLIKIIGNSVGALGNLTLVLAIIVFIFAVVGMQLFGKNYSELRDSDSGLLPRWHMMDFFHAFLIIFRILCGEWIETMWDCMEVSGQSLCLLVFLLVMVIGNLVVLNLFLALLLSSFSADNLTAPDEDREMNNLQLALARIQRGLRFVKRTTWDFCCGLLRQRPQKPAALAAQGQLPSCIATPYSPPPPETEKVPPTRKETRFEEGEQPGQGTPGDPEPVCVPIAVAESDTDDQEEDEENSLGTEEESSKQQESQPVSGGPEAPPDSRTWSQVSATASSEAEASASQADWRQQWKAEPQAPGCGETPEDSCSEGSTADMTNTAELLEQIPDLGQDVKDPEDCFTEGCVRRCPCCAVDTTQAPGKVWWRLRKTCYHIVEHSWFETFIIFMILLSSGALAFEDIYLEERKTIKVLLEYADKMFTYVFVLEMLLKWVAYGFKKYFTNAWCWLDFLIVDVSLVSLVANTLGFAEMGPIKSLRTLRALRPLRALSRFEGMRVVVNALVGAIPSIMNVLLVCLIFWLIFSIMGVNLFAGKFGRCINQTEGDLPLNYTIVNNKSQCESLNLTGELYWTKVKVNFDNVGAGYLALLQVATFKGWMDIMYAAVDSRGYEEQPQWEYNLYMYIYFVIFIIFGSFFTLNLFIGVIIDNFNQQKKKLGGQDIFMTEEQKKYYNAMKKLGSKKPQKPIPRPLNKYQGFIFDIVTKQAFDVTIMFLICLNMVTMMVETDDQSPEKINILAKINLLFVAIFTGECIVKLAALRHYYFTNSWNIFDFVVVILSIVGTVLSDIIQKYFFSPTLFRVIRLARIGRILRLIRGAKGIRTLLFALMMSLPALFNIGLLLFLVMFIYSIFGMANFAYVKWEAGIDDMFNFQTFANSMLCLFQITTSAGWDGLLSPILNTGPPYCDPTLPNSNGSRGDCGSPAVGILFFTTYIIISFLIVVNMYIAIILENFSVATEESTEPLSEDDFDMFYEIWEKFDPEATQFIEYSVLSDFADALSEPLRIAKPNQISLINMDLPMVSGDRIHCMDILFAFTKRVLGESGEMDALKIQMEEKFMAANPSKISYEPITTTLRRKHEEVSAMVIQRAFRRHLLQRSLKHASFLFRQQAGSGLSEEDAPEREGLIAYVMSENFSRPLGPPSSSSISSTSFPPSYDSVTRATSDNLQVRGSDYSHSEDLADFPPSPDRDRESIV
# hNav1.7 = hNav1.7 (Homo sapiens, UniProt Q15858); type: cell-based; details: IonWorks Quattro, read-out: IWQ Use Nav1.7
# hNav1.3 = hNav1.3 (Homo sapiens, UniProt Q9NY46); details: IonWorks Quattro, read-out: IWQ Use Nav1.3
# Chain of hNav1.3 (Q9NY46 whole entry, looked up): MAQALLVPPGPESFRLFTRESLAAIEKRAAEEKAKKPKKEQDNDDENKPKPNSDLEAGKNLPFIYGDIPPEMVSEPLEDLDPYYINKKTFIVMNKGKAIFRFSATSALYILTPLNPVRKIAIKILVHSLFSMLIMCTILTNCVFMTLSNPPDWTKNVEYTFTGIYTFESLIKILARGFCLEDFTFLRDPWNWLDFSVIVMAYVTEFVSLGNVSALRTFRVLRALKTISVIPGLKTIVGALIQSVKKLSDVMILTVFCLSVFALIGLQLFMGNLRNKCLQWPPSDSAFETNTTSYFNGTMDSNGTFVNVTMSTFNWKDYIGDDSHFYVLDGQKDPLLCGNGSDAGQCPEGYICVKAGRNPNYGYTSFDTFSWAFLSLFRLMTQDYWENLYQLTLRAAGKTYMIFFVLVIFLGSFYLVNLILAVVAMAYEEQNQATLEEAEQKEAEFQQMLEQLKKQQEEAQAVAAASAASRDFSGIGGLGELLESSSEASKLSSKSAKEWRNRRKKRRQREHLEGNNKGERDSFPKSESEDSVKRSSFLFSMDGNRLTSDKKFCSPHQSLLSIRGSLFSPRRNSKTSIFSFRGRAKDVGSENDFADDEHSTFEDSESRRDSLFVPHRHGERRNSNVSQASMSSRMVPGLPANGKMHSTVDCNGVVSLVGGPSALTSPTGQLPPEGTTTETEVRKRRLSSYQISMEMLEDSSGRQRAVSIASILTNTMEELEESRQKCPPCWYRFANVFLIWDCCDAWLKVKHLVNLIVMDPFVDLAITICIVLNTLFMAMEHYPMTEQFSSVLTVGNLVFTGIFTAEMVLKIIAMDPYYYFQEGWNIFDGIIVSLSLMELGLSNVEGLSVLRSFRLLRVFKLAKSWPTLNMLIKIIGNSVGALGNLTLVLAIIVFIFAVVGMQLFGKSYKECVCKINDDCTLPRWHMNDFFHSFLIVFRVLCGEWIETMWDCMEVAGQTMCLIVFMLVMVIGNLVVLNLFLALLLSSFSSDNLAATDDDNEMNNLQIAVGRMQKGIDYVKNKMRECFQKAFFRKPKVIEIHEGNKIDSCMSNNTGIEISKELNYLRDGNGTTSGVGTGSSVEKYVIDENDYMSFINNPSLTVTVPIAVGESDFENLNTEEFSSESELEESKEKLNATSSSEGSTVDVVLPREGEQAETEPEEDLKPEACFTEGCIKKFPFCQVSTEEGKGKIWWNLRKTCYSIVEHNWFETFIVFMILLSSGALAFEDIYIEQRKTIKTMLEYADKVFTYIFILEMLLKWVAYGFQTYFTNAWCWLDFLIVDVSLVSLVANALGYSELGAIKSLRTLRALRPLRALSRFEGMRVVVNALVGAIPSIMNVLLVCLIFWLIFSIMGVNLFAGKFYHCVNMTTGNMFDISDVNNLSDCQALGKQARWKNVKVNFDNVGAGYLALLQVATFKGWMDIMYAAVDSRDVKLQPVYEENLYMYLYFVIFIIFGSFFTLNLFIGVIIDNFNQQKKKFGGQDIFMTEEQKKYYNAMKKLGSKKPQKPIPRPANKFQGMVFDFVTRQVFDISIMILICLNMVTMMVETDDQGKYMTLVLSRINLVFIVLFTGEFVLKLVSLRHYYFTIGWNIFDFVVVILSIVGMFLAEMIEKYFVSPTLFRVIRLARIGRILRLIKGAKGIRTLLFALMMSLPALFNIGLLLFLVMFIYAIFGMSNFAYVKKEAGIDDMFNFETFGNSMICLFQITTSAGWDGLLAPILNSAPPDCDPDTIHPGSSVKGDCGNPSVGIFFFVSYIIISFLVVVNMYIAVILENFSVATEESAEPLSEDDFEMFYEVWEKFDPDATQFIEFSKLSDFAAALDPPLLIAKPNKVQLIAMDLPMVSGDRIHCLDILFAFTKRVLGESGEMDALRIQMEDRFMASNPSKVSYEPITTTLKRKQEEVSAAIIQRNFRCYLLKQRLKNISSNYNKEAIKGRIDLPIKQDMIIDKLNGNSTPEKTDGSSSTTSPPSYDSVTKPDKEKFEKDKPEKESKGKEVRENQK
Structure (SMILES),"IC50 (hNav1.5; use-dependent block, hNav1.5) [µM]","IC50 (hNav1.7; use-dependent block, hNav1.7) [µM]","IC50 (hNav1.3; use-dependent block, hNav1.3) [µM]",also measured
"CC[C@H](C)[C@@H]1NC(=O)[C@@H]2CSSC[C@@H]3NC(=O)[C@H](C(C)C)NC(=O)[C@H](CC(C)C)NC(=O)[C@H](CC(N)=O)NC(=O)[C@@H]4CCCN4C(=O)[C@H](CCCNC(=N)N)NC(=O)[C@H](CSSC[C@H](NC(=O)[C@@H](N)CC(=O)O)C(=O)N[C@@H](CC(C)C)C(=O)NCC(=O)N[C@@H](Cc4ccccc4)C(=O)N[C@@H](CCSC)C(=O)N[C@@H](CCCNC(=N)N)C(=O)N[C@@H](CCCCN)C(=O)N2)NC(=O)[C@H](CSSC[C@@H](C(=O)N[C@@H](CCCCN)C(=O)N[C@@H](Cc2ccc(O)cc2)C(=O)N[C@@H](Cc2ccc(O)cc2)C(=O)N[C@@H](Cc2ccccc2)C(N)=O)NC(=O)[C@H](Cc2c[nH]c4ccccc24)NC(=O)[C@H](CCCCN)NC(=O)[C@H](Cc2c[nH]cn2)NC(=O)[C@H]([C@@H](C)O)NC(=O)[C@H](CCCNC(=N)N)NC(=O)[C@H](CO)NC3=O)NC(=O)[C@H](CCCCN)NC(=O)[C@H](CC(=O)O)NC(=O)[C@H](CC(N)=O)NC(=O)[C@H](CC(=O)O)NC(=O)[C@@H]2CCCN2C1=O [compound 399] (H-DCLGFMRKCIPDNDKCCRPNLVCSRTHKWCKYYF-NH2; disulfide 2-17, 9-23, 16-30)",–,–,–,"IC50 (hNav1.5; Table 26, use, […]): > 5 µM; IC50 (hNav1.7; Table 26, use, […]): 0.07 µM; IC50 (hNav1.3; Table 26, use, […]): 0.03 µM"
CC[C@H](C)[C@@H]1NC(=O)[C@@H]2CSSC[C@@H]3NC(=O)[C@H](C(C)C)NC(=O)[C@H](CC(C)C)NC(=O)[C@H](CC(N)=O)NC(=O)[C@@H]4CCCN4C(=O)[C@H](CCCNC(=N)N)NC(=O)[C@H](CSSC[C@H](NC(=O)[C@@H](N)CC(=O)O)C(=O)N[C@@H](CC(C)C)C(=O)NCC(=O)N[C@@H](C)C(=O)N[C@@H](Cc4cccc5ccccc45)C(=O)N[C@@H](CCCNC(=N)N)C(=O)N[C@@H](CCCCN)C(=O)N2)NC(=O)[C@H](CSSC[C@@H](C(=O)N[C@@H](CCCCN)C(=O)N[C@@H](Cc2ccc(O)cc2)C(=O)N[C@H](C(=O)N[C@@H](Cc2ccccc2)C(N)=O)C(C)C)NC(=O)[C@H](Cc2c[nH]c4ccccc24)NC(=O)[C@H](CCCCN)NC(=O)[C@H](Cc2cnc[nH]2)NC(=O)[C@H]([C@@H](C)O)NC(=O)[C@H](CCCNC(=N)N)NC(=O)[C@H](CO)NC3=O)NC(=O)[C@H](CCCCN)NC(=O)[C@H](CC(=O)O)NC(=O)[C@H](CC(N)=O)NC(=O)[C@H](CC(=O)O)NC(=O)[C@@H]2CCCN2C1=O [compound 256],5,0.1,0.06,–
"CC[C@H](C)[C@@H]1NC(=O)[C@@H]2CSSC[C@@H]3NC(=O)[C@H](C(C)C)NC(=O)[C@H](CC(C)C)NC(=O)[C@H](CC(N)=O)NC(=O)[C@@H]4CCCN4C(=O)[C@H](CCCNC(=N)N)NC(=O)[C@H](CSSC[C@H](NC(=O)[C@@H](N)CC(=O)O)C(=O)N[C@@H](CC(C)C)C(=O)NCC(=O)N[C@@H](C)C(=O)N[C@@H](Cc4ccccc4)C(=O)N[C@@H](CCCNC(=N)N)C(=O)N[C@@H](CCCCN)C(=O)N2)NC(=O)[C@H](CSSC[C@@H](C(=O)N[C@@H](CCCCN)C(=O)N[C@@H](Cc2ccc(O)cc2)C(=O)N[C@H](C(=O)N[C@@H](Cc2ccccc2)C(=O)N[C@@H](Cc2ccccc2)C(=O)O)C(C)C)NC(=O)[C@H](Cc2c[nH]c4ccccc24)NC(=O)[C@H](CCCNC(=N)N)NC(=O)[C@H](Cc2c[nH]cn2)NC(=O)[C@H]([C@@H](C)O)NC(=O)[C@H](CCCNC(=N)N)NC(=O)[C@H](CO)NC3=O)NC(=O)[C@H](CCCCN)NC(=O)[C@H](CC(=O)O)NC(=O)[C@H](CC(N)=O)NC(=O)[C@H](CC(=O)O)NC(=O)[C@@H]2CCCN2C1=O [compound 817] (H-DCLGAFRKCIPDNDKCCRPNLVCSRTHRWCKYVFF-OH; disulfide 2-17, 9-23, 16-30)",> 5,1.5,0.5,–
CC[C@H](C)[C@@H]1NC(=O)[C@@H]2CSSC[C@@H]3NC(=O)[C@H](C(C)C)NC(=O)[C@H](CC(C)C)NC(=O)[C@H](CC(N)=O)NC(=O)[C@@H]4CCCN4C(=O)[C@H](CCCNC(=N)N)NC(=O)[C@H](CSSC[C@H](NC(=O)[C@@H](N)CC(=O)O)C(=O)N[C@@H](CC(C)C)C(=O)NCC(=O)N[C@@H](C)C(=O)N[C@@H](CCSC)C(=O)N[C@@H](CCCNC(=N)N)C(=O)N[C@@H](CCCCN)C(=O)N2)NC(=O)[C@H](CSSC[C@@H](C(=O)N[C@@H](CCCCN)C(=O)N[C@@H](Cc2ccc(O)cc2)C(=O)N[C@H](C(=O)N[C@@H](Cc2ccccc2)C(N)=O)C(C)C)NC(=O)[C@H](Cc2c[nH]c4ccccc24)NC(=O)[C@H](CCCCN)NC(=O)[C@H](Cc2c[nH]cn2)NC(=O)[C@H]([C@@H](C)O)NC(=O)[C@H](CCC(=O)O)NC(=O)[C@H](CO)NC3=O)NC(=O)[C@H](CCCCN)NC(=O)[C@H](CC(=O)O)NC(=O)[C@H](CC(N)=O)NC(=O)[C@H](CC(=O)O)NC(=O)[C@@H]2CCCN2C1=O [compound 438],18.2,5.5,5.95,–
"CC[C@H](C)[C@@H]1NC(=O)[C@@H]2CSSC[C@@H]3NC(=O)[C@H](C(C)C)NC(=O)[C@H](CC(C)C)NC(=O)[C@H](CC(N)=O)NC(=O)[C@@H]4CCCN4C(=O)[C@H](CCCNC(=N)N)NC(=O)[C@H](CSSC[C@H](NC(=O)[C@@H](N)CC(=O)O)C(=O)N[C@@H](CC(C)C)C(=O)NCC(=O)N[C@@H](Cc4ccc5ccccc5c4)C(=O)N[C@@H](CCSC)C(=O)N[C@@H](CCCNC(=N)N)C(=O)N[C@@H](CCCCN)C(=O)N2)NC(=O)[C@H](CSSC[C@@H](C(=O)N[C@@H](CCCCN)C(=O)N[C@@H](Cc2ccc(O)cc2)C(=O)N[C@H](C(=O)N[C@@H](Cc2cccc4ccccc24)C(N)=O)C(C)C)NC(=O)[C@H](Cc2c[nH]c4ccccc24)NC(=O)[C@H](CCCCN)NC(=O)[C@H](Cc2c[nH]cn2)NC(=O)[C@H]([C@@H](C)O)NC(=O)[C@H](CCCNC(=N)N)NC(=O)[C@H](CO)NC3=O)NC(=O)[C@H](CCCCN)NC(=O)[C@H](CC(=O)O)NC(=O)[C@H](CC(N)=O)NC(=O)[C@H](CC(=O)O)NC(=O)[C@@H]2CCCN2C1=O [compound 137] (H-DCLG[2Nal]MRKCIPDNDKCCRPNLVCSRTHKWCKYV[1Nal]-NH2; disulfide 2-17, 9-23, 16-30)",3.15,0.11,0.02,–
"CC[C@H](C)[C@@H]1NC(=O)[C@@H]2CSSC[C@@H]3NC(=O)[C@H](C(C)C)NC(=O)[C@H](CC(C)C)NC(=O)[C@H](CC(N)=O)NC(=O)[C@@H]4CCCN4C(=O)[C@H](CCCNC(=N)N)NC(=O)[C@H](CSSC[C@H](NC(=O)[C@@H](N)CC(=O)O)C(=O)N[C@@H](CC(C)C)C(=O)NCC(=O)N[C@@H](C)C(=O)N[C@@H](CCSC)C(=O)N[C@@H](CCCNC(=N)N)C(=O)N[C@@H](CCCCN)C(=O)N2)NC(=O)[C@H](CSSC[C@@H](C(=O)N[C@@H](CCCCN)C(=O)N[C@@H](Cc2ccc(O)cc2)C(=O)N[C@H](C(=O)N[C@@H](Cc2ccccc2)C(N)=O)C(C)C)NC(=O)[C@H](Cc2c[nH]c4ccccc24)NC(=O)[C@H](CCCCN)NC(=O)[C@H](Cc2c[nH]cn2)NC(=O)[C@H]([C@@H](C)O)NC(=O)[C@H](CCCNC(=N)N)NC(=O)[C@H](CO)NC3=O)NC(=O)[C@H](CCCCN)NC(=O)[C@H](CC(=O)O)NC(=O)[C@H](Cc2cccc3ccccc23)NC(=O)[C@H](CC(=O)O)NC(=O)[C@@H]2CCCN2C1=O [compound 427] (H-DCLGAMRKCIPD[1Nal]DKCCRPNLVCSRTHKWCKYVF-NH2; disulfide 2-17, 9-23, 16-30)",> 5,0.65,1.18,–
"CC[C@H](C)[C@@H]1NC(=O)[C@@H]2CSSC[C@@H]3NC(=O)[C@H](C(C)C)NC(=O)[C@H](CC(C)C)NC(=O)[C@H](CC(N)=O)NC(=O)[C@@H]4CCCN4C(=O)[C@H](CCCNC(=N)N)NC(=O)[C@H](CSSC[C@H](NC(=O)[C@@H](N)CC(=O)O)C(=O)N[C@@H](CC(C)C)C(=O)NCC(=O)N[C@@H](Cc4ccccc4)C(=O)N[C@@H](CCSC)C(=O)N[C@@H](CCCNC(=N)N)C(=O)N[C@@H](CCCCN)C(=O)N2)NC(=O)[C@H](CSSC[C@@H](C(=O)N[C@@H](CCCCN)C(=O)N[C@@H](Cc2ccc(O)cc2)C(=O)N[C@H](C(=O)N[C@@H](Cc2ccccc2)C(N)=O)C(C)C)NC(=O)[C@H](Cc2c[nH]c4ccccc24)NC(=O)[C@H](CCCCN)NC(=O)[C@H](CCCCN)NC(=O)[C@H]([C@@H](C)O)NC(=O)[C@H](CCCNC(=N)N)NC(=O)[C@H](CO)NC3=O)NC(=O)[C@H](CCCCN)NC(=O)[C@H](CC(=O)O)NC(=O)[C@H](CC(N)=O)NC(=O)[C@H](CC(=O)O)NC(=O)[C@@H]2CCCN2C1=O [compound 55] (H-DCLGFMRKCIPDNDKCCRPNLVCSRTKKWCKYVF-NH2; disulfide 2-17, 9-23, 16-30)",–,–,–,"IC50 (hNav1.5; Table 23, use, […]): 11.5 µM; IC50 (hNav1.7; Table 23, use, […]): 1.51 µM; IC50 (hNav1.3; Table 23, use, […]): 2.48 µM"
